≈ marks a conversion by molar mass, not a printed value. Values belong to the molecule of their own block, whether it stands above or below them.
What was measured:
Experiment in all cases: ≥ marks a high value that may be exact or a test limit, other limits are often not marked, values filed in µg/mL are converted to µM
[1] = system: Trichophyton mentagrophytes IFO 5466
[2] = system: Staphylococcus aureus KO-4
[3] = system: Staphylococcus aureus ATCC 6538P
[4] = system: Escherichia coli JM109
[5] = system: Trypanosoma brucei brucei GUT Tat3.1
[6] = system: Pseudomonas aeruginosa
[7] = system: Staphylococcus aureus
[8] = system: Escherichia coli 363 ATCC 11775
[9] = system: Vibrio alginolyticus ATCC 17749
[10] = system: Fusarium oxysporum
[11] = system: Staphylococcus epidermidis ATCC 12228
[12] = system: Bacillus megaterium ATCC 17749
[13] = system: Candida sp.
[14] = system: Micrococcus luteus ATCC 4698
[15] = system: Salmonella enterica subsp. enterica serovar Newport
[16] = system: Vibrio metschnikovii NCTC 8483
[17] = system: Staphylococcus aureus ATCC 25293
[18] = system: Escherichia coli
[19] = system: Bacillus subtilis KCTC 1021
[20] = system: Serratia marcescens
[21] = system: Klebsiella pneumoniae ATCC 10031
[22] = system: Pseudomonas putida
[23] = system: Saccharomyces cerevisiae
[24] = system: Proteus mirabilis ATCC 25933
[25] = system: Pseudomonas aeruginosa ATCC 9027
[26] = system: Shigella dysenteriae ATCC 9752
[27] = system: Salmonella enterica subsp. enterica serovar Typhimurium ATCC 14028
[28] = system: Candida albicans
[29] = system: Escherichia coli DH5alpha
[30] = system: Staphylococcus aureus BCRC 10781
[31] = system: Lactococcus garvieae
[32] = system: Staphylococcus aureus BCRC 10780
[33] = system: Enterobacter cloacae BCRC 10401
[34] = system: Escherichia coli BCRC 10675
[35] = system: Vibrio harveyi
[36] = system: Klebsiella aerogenes BCRC 10370
[37] = system: Yersinia enterocolitica BCRC 13999
[38] = system: Listeria monocytogenes BCRC 14845
[39] = system: Vibrio parahaemolyticus
[40] = system: Vibrio alginolyticus BCRC 12829
[41] = system: Streptococcus equinus BCRC 14729
[42] = system: Vibrio alginolyticus
[43] = system: Staphylococcus xylosus BCRC 12930
[44] = system: Vibrio parahaemolyticus BCRC 10806
[45] = system: Pseudomonas aeruginosa BCRC 10944
[46] = system: Vibrio anguillarum serotype O1
[47] = system: Streptococcus iniae
[48] = system: Klebsiella oxytoca BCRC 13985
[49] = system: Staphylococcus aureus USA 300
[50] = system: Pseudomonas aeruginosa PAO1
[51] = system: Pseudomonas aeruginosa NCTC 13437
[52] = system: Escherichia coli LEC001
[53] = system: Staphylococcus aureus ATCC 9144
[54] = system: Acinetobacter baumannii AYE
[55] = system: Acinetobacter baumannii ATCC 17978
[56] = system: Escherichia coli NCTC 12923
[57] = system: Klebsiella pneumoniae NCTC 13368

Structure (SMILES): CC[C@H](C)[C@H](NC(=O)[C@H](C)NC(=O)[C@H](CC(C)C)NC(=O)[C@H](Cc1ccc(O)cc1)NC(=O)[C@H](CC(C)C)NC(=O)[C@H](C)N)C(=O)N[C@@H](CCCN=C(N)N)C(=O)N[C@@H](CCCN=C(N)N)C(=O)N[C@@H](CCCN=C(N)N)C(N)=O [ALYLAIRRR]
- MIC [1]: ≥ 53 µM
- MIC [2]: ≥ 530 µM
- MIC [3]: 1.33 µM (≈ 1.5 µg/mL)
- MIC [4]: 2.65 µM (≈ 3 µg/mL)
- MIC [5]: ≥ 125 µM
- MIC [6]: 354 µM (≈ 400 µg/mL)
- MIC [7]: 21.2 µM (≈ 24 µg/mL)

Structure (SMILES): CC(C)C[C@@H]1NC(=O)[C@H](CCCN=C(N)N)NC(=O)[C@H](Cc2cnc[nH]2)NC(=O)[C@H](Cc2c[nH]c3ccccc23)NC(=O)CNC(=O)CNC(=O)[C@@H](N)CSSC[C@@H](C(=O)O)NC(=O)[C@H](CCCN=C(N)N)NC1=O [CGGWHRLRC]
- MIC [8]: ≥ 75 µM
- MIC [9]: ≥ 75 µM
- MIC [10]: 30 µM (≈ 32.6 µg/mL)
- MIC [11]: 43 µM (≈ 46.7 µg/mL)
- MIC [12]: ≥ 51 µM
- MIC [13]: ≥ 59 µM
- MIC [14]: 28 µM (≈ 30.4 µg/mL)
- MIC [15]: ≥ 75 µM
- MIC [16]: ≥ 75 µM
- MIC [17]: ≥ 49 µM

Structure (SMILES): CC[C@H](C)[C@@H]1NC(=O)[C@H](CCCCN)NC(=O)[C@@H](NC(=O)[C@@H](NC(=O)[C@@H](NC(=O)[C@@H](NC(=O)[C@@H]2CCCN2C(=O)[C@H](CC(C)C)NC(=O)[C@H](Cc2ccccc2)NC(=O)[C@H](CC(N)=O)NC(=O)[C@H](C)NC(=O)[C@H](C)NC(=O)[C@H](CC(C)C)NC(=O)CNC(=O)[C@H](C)NC(=O)[C@H](CC(C)C)NC(=O)[C@H](CC(C)C)NC(=O)[C@@H]2CCCN2C(=O)[C@H](CC(C)C)NC(=O)[C@@H](N)Cc2ccccc2)[C@@H](C)O)[C@@H](C)CC)[C@@H](C)CC)CSSC[C@@H](C(=O)O)NC(=O)[C@H](CCCCN)NC(=O)[C@H](Cc2ccc(O)cc2)NC(=O)[C@H](CO)NC1=O [FLPLLAGLAANFLPTIICKISYKC]
- MIC [18]: 38.3 µM (≈ 99.9 µg/mL)
- MIC [19]: 3.83 µM (≈ 9.99 µg/mL)
- MIC [20]: ≥ 76.6 µM
- MIC [11]: 3.83 µM (≈ 9.99 µg/mL)
- MIC [21]: 9.58 µM (≈ 25 µg/mL)
- MIC [22]: ≥ 57.5 µM
- MIC [23]: 19.2 µM (≈ 50 µg/mL)
- MIC [24]: ≥ 76.6 µM
- MIC [14]: 0.958 µM (≈ 2.5 µg/mL)
- MIC [25]: 57.5 µM (≈ 150 µg/mL)
- MIC [26]: 19.2 µM (≈ 50 µg/mL)
- MIC [27]: 19.2 µM (≈ 50 µg/mL)
- MIC [28]: 19.2 µM (≈ 50 µg/mL)
- MIC [29]: 9.58 µM (≈ 25 µg/mL)

Second part, led by results:

- MIC [30]: ≥ 49.9 µM
- MIC [31]: ≥ 99.7 µM
- MIC [32]: ≥ 49.9 µM
- MIC [33]: 24.9 µM (≈ 64 µg/mL)
- MIC [34]: 24.9 µM (≈ 64 µg/mL)
- MIC [35]: 24.9 µM (≈ 64 µg/mL)
- MIC [36]: 24.9 µM (≈ 64 µg/mL)
- MIC [37]: ≥ 99.7 µM
- MIC [38]: ≥ 49.9 µM
- MIC [40]: 24.9 µM (≈ 64 µg/mL)
- MIC [41]: ≥ 49.9 µM
- MIC [42]: 24.9 µM (≈ 64 µg/mL)
- MIC [43]: 24.9 µM (≈ 64 µg/mL)
- MIC [45]: 24.9 µM (≈ 64 µg/mL)
- MIC [46]: ≥ 49.9 µM
- MIC [47]: ≥ 49.9 µM
- MIC [48]: ≥ 49.9 µM
Structure (SMILES): CC[C@H](C)[C@H](NC(=O)[C@H](Cc1ccc(O)cc1)NC(=O)[C@H](CCCCN)NC(=O)[C@H](Cc1ccc(O)cc1)NC(=O)[C@H](Cc1ccccc1)NC(=O)[C@H](CC(N)=O)NC(=O)[C@H](Cc1ccc(O)cc1)NC(=O)[C@@H](NC(=O)[C@H](Cc1ccc(O)cc1)NC(=O)[C@H](CCCCN)NC(=O)[C@H](C)NC(=O)[C@H](Cc1ccc(O)cc1)NC(=O)[C@H](CCCCN)NC(=O)[C@H](C)NC(=O)CN)[C@@H](C)CC)C(=O)N[C@@H](C)C(=O)N[C@@H](CCCCN)C(=O)N[C@@H](Cc1ccc(O)cc1)C(=O)N[C@H](C(=O)N[C@@H](Cc1c[nH]c2ccccc12)C(=O)O)[C@@H](C)CC [GAKYAKYIYNFYKYIAKYIW]
- MIC [39]: 24.9 µM (≈ 64 µg/mL)
- MIC [44]: 24.9 µM (≈ 64 µg/mL)

- MIC [49]: ≥ 55.1 µM
- MIC [50]: > 55.1 µM
- MIC [51]: ≥ 55.1 µM
- MIC [52]: ≥ 55.1 µM
- MIC [53]: ≥ 55.1 µM
- MIC [54]: ≥ 55.1 µM
- MIC [55]: ≥ 55.1 µM
- MIC [56]: ≥ 55.1 µM
- MIC [57]: ≥ 55.1 µM
Structure (SMILES): CC[C@H](C)[C@H](NC(=O)CNC(=O)[C@H](CO)NC(=O)[C@@H](N)Cc1c[nH]c2ccccc12)C(=O)N[C@@H](CCCN=C(N)N)C(=O)NCC(=O)N[C@@H](Cc1ccc(O)cc1)C(=O)N[C@@H](CCCCN)C(=O)NCC(=O)NCC(=O)N[C@@H](Cc1ccc(O)cc1)C(=O)N[C@@H](CCCCN)C(=O)NCC(=O)N[C@@H](CC(C)C)C(=O)N[C@@H](Cc1ccccc1)C(=O)N[C@@H](CCCCN)C(=O)N[C@@H](CCC(N)=O)C(=O)N[C@H](C(=O)N[C@@H](CC(N)=O)C(=O)N[C@@H](Cc1ccc(O)cc1)C(N)=O)[C@@H](C)O [WSGIRGYKGGYKGLFKQTNY]
